Source: ChEMBL document CHEMBL1201862, “PubChem BioAssay data set” (2004)
Calls of active or inactive are those of the source.

Assays:
Bcl-2-like protein 10 = biological target: T1, Bcl-2-like protein 10 (Homo sapiens, UniProt Q9HD36); experiment: Bcl-B/TR3 peptide binding disruption – biochemical, fluorescence polarization, FITC-TR3 peptide, selectivity assay for Bfl-1 inhibitor project, primary screen (AID 748);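 further: fluorescence polarization from a fluorescein-labelled TR3 peptide binding purified Bcl-B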
T1 sequence (Q9HD36 whole entry): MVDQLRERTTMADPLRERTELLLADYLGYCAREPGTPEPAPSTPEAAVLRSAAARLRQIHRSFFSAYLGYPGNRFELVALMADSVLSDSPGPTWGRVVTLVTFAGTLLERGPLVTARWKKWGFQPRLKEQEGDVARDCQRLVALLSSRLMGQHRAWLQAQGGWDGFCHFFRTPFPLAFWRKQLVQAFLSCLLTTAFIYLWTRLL

Estrogen receptor beta = Estrogen receptor beta (Homo sapiens, UniProt Q92731); experiment: blockers of SRC-3 recruitment to ERβ – biochemical, ELISA, streptavidin-HRP readout, orthogonal assay, confirmation (AID 1060)
Estrogen receptor beta, sequence (Q92731 whole entry): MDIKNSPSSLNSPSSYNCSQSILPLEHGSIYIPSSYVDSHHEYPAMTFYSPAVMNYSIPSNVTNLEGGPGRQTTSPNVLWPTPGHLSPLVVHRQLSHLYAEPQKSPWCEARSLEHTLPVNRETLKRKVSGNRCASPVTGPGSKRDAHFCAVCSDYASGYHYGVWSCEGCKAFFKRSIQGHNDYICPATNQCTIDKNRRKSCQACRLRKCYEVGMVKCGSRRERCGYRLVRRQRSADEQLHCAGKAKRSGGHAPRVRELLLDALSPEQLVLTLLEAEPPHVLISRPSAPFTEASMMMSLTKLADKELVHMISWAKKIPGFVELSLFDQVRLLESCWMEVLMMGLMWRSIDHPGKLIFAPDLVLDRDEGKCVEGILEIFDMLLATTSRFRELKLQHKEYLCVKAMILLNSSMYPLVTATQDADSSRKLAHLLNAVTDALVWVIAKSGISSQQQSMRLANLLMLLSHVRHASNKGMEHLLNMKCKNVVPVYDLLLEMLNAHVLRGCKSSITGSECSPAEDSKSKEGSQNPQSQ

Protein Tat = biological target: T2, Protein Tat (Human immunodeficiency virus type 1 group M subtype B (isolate HXB2)(HIV-1), UniProt P04608); format: functional;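 further: tat binding to TAR RNA read out by fluorescence polarization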
T2 sequence (P04608 whole entry): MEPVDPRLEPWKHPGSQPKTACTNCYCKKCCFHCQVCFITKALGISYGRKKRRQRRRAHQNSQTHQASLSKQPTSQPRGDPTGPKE

[1] = viability loss in THP-1 monocytes – THP-1 cells, cytotoxicity control for Vif-APOBEC3G degradation inhibitor project, dose response (AID 1117359); format: functional; conditions: THP-1
[2] = biological target: T3, Glutathione-S-transferase (Schistosoma japonicum, UniProt Q26513); experiment: GST-antibody interaction or FRET quenching – biochemical, TR-FRET, artefact control for Vif-APOBEC3G degradation inhibitor project, dose response (AID 1117362); format: functional
T3 sequence (Q26513 whole entry): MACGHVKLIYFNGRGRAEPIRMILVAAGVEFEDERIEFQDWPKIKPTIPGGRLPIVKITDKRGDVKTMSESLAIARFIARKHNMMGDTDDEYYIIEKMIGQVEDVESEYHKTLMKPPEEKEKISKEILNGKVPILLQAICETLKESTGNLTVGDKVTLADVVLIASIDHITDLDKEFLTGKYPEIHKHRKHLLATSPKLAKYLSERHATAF

[3] = HEK-293T cell viability reduction – luminescence, B-cell screen hits, cytotoxicity control for BCR NF-kB inhibitor project, dose response (AID 489021); format: functional, cell-based;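 further: HEK-293T cells carrying an NF-kB luciferase reporter; cells exposed to compound for about 14 hours before viability readout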
INS1 = experiment: INS-1E survival protection against cytokine death – cell-based, luminescence, retest, dose response (AID 449756); format: functional; conditions: Rattus norvegicus;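 further: cell death triggered by IL-1 beta plus TNF-alpha plus IFN-gamma mixture; protective hits raise ATP signal compared with cytokine alone wells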
[4] = reduction of Shn3 3'UTR-driven luciferase in osteoblasts – cell-based, Clone20 osteoblasts, firefly luciferase, cherry-picked, dose response (AID 624132); format: functional;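 further: firefly luciferase luminescence from reporter carrying the Shn3 3'UTR in osteoblasts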
[5] = loss of viability in HepG2 cells – cell-based, CellTiter-Glo, cherry-picked, cytotoxicity control for Shn3 inhibitor project, dose response (AID 624134); format: functional
[6] = non-specific 3'UTR reporter inhibition in Clone20-Shn3RL – cell-based, Renilla luciferase, cherry-picked, counter-screen for Shn3 inhibitor project, dose response (AID 624133); format: functional
Galanin receptor type 3 = biological target: T4, Galanin receptor type 3 (Homo sapiens, UniProt O60755); experiment: Fluorescence-based cell-based primary high throughput dose response assay to identify antagonists of the Galanin Receptor 3 (GalR3).; format: functional
T4 sequence (O60755 whole entry): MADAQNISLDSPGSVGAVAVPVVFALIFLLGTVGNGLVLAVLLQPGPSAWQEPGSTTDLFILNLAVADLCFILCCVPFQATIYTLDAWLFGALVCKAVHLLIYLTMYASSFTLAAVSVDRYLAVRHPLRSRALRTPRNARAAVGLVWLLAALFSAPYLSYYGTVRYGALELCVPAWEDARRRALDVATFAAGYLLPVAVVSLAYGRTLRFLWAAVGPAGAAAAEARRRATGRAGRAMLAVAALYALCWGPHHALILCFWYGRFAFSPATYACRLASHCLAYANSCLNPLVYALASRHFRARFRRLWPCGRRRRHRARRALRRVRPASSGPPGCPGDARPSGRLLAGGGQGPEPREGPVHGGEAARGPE

cells [7] = format: functional, cell-based; conditions: HEK-CNG
[8] = biological target: G2/mitotic-specific cyclin-B1 (Homo sapiens, UniProt P14635); experiment: Counterscreen assay for inhibitors of Wee1 degradation: dose response cell-based assay to identify inhibitors of cyclin B degradation. [Related pubchem assays: 1410, 1321 ]; format: functional
G2/mitotic-specific cyclin-B1, sequence (P14635 whole entry): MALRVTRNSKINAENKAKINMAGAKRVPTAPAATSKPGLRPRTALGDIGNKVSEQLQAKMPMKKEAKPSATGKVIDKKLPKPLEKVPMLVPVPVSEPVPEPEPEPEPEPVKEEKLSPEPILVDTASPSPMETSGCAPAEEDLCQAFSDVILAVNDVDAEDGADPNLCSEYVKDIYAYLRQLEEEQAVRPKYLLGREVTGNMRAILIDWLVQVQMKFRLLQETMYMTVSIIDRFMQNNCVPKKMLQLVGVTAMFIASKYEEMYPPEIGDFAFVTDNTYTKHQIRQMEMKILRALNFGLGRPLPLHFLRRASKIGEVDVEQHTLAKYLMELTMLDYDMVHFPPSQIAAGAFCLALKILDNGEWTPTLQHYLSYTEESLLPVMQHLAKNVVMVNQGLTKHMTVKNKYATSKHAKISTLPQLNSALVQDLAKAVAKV

Wee1-like protein kinase = Wee1-like protein kinase (Homo sapiens, UniProt P30291); experiment: Dose Response Cell-based Assay for Inhibitors of Wee1 Degradation. [Related pubchem assays: 1410, 1321 ]; format: functional
Wee1-like protein kinase, sequence (P30291 whole entry): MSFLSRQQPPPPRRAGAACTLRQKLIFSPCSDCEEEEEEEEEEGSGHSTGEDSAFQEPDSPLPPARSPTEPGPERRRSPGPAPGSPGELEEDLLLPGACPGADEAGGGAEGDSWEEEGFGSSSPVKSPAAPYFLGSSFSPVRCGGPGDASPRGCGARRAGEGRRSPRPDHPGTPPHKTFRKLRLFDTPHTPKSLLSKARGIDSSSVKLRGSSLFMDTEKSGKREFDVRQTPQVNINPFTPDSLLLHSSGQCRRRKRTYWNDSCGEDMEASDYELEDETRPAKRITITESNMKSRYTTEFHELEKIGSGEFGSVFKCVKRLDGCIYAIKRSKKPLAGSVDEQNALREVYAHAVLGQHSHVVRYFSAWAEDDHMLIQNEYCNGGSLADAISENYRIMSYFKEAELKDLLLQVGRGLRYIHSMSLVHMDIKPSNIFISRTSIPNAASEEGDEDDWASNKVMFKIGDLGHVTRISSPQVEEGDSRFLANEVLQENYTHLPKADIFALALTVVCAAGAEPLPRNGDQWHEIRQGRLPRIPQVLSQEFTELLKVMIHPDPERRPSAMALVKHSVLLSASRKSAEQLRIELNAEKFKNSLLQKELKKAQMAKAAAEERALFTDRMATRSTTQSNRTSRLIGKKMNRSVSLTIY

[9] = luciferase reporter signal suppression in cells – H4 neuroglioma cells, luminescence, dose response (AID 1990); format: functional, cell-based
[10] = luciferase reporter signal reduction – luminescence, H4-C neuroglioblastoma cells, dose response (AID 2458); format: functional, cell-based;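 further: H4 neuroglioblastoma cells stably carrying a luciferase reporter gene fusion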
cells [11] = format: functional, cell-based
[12] = Luminescence Cell-Based Dose Response HTS to Identify Inhibitors of 5'UTR Stem-Loop Driven Prion Protein mRNA Translation in H4 Neuroglioblastoma Cells. [Related pubchem assays: 1827 (Project Summary), 1813 (Primary HTS)]; format: functional
[13] = alpha-synuclein stem-loop luciferase translation blockers – H4 neuroglioma cells, luminescence, confirmation (AID 1988); format: functional, cell-based
[14] = microbe, parasite or virus in culture; format: functional; conditions: Mycobacterium tuberculosis
[15] = alpha-synuclein stem-loop translation blockers – luminescence, H4 neuroglioblastoma cells, dose confirmation, confirmation (AID 2454); format: functional, cell-based;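 further: H4 neuroglioblastoma cells carrying an alpha-synuclein 5'UTR luciferase reporter; potency for inhibition of the luciferase signal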
SUMO-activating enzyme [16] = biological target: T5, SUMO-activating enzyme (Homo sapiens, UniProt Q9UBT2); experiment: blockers of UBC9-mediated SUMO conjugation – biochemical, AlphaScreen, SUMOylation inhibitor project, confirmation (AID 2018); format: functional
T5 sequence (Q9UBE0 whole entry): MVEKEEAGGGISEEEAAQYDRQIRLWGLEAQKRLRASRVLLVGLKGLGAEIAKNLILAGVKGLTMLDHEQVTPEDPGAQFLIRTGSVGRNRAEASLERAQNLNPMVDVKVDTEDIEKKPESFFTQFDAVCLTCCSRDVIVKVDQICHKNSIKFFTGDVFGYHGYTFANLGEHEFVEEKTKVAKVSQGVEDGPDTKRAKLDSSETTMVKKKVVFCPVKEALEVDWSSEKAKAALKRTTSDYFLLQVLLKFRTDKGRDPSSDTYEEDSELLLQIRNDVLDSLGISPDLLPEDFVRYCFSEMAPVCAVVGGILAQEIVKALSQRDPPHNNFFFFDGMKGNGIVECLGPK
T5 sequence (Q9UBT2 whole entry): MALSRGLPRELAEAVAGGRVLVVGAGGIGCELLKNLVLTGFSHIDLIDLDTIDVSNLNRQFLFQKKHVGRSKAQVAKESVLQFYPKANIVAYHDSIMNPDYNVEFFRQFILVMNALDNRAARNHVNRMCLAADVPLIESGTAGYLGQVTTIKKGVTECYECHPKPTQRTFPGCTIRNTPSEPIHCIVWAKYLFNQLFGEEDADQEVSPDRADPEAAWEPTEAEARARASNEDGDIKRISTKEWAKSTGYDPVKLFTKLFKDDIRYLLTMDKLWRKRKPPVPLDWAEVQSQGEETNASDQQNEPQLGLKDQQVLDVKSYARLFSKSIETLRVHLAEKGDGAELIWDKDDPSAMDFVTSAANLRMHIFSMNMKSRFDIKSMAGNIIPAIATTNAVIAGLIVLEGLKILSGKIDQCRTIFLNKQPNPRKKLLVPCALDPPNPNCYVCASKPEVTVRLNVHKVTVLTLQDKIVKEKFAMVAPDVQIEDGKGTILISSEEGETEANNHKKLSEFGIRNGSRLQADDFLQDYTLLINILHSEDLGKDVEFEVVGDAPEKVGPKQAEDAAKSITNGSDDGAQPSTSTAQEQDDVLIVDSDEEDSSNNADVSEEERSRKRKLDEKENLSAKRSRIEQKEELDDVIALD

SUMO-activating enzyme [17] = biological target: T5, SUMO-activating enzyme; experiment: blockers of SAE1/SAE2–UBC9 SUMO transfer – biochemical, HTRF, uHTS, primary screen (AID 2006); format: protein-complex assay
[18] = biological target: T6, Endoribonuclease toxin MazF (Escherichia coli K-12, UniProt P0AE70); experiment: activation of MazEF endoribonuclease cleavage – biochemical, fluorescence, single-stranded RNA substrate, uHTS hits, dose response (AID 588481); format: functional
T6 sequence (P0AE70 whole entry): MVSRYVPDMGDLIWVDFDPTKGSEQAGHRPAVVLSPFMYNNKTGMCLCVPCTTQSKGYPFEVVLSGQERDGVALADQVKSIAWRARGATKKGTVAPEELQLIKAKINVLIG

[19] = biological target: T6, Endoribonuclease toxin MazF; experiment: substrate-only fluorescence increase artefacts – biochemical, single-stranded RNase substrate, counter-screen for MazEF activator project, dose response (AID 588502); format: functional
[20] = biological target: T7, Epstein-Barr nuclear antigen 1 (Epstein-Barr virus (strain B95-8) (HHV-4) (Human herpesvirus 4), UniProt P03211); experiment: inhibition of EBV nuclear antigen 1 DNA binding – biochemical, fluorescence polarization, 1536-well, dose response (AID 2381); parameters: species or system human gammaherpesvirus 4;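 further: fluorescence polarization of a Cy5 DNA probe bound by EBNA-1 protein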
T7 sequence (P03211 whole entry): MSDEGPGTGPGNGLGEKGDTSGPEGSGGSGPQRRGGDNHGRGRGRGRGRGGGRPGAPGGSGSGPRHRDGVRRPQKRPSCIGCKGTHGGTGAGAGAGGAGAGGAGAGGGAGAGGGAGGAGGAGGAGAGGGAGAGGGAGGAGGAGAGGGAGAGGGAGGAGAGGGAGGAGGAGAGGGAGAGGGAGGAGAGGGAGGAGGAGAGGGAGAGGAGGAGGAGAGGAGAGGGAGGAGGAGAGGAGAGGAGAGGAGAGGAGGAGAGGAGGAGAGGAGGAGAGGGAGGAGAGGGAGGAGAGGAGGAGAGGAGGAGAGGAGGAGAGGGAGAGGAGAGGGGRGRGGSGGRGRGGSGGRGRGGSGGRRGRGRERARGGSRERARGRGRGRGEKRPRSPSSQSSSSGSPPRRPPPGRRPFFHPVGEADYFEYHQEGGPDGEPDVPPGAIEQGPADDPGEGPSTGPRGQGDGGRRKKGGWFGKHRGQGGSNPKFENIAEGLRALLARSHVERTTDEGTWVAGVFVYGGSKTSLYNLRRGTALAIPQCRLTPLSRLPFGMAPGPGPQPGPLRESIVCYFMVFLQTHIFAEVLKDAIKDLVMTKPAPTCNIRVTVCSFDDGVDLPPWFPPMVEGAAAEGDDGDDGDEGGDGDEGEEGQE

[21] = biological target: T8, Lytic switch protein BZLF1 (Epstein-Barr virus (strain B95-8) (HHV-4) (Human herpesvirus 4), UniProt P03206); experiment: inhibition of BZLF1 ZTA DNA binding – biochemical, fluorescence polarization, Epstein-Barr virus, 1536-well, counter-screen for EBNA-1 inhibitor project, dose response (AID 2377); parameters: species or system human gammaherpesvirus 4;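 further: fluorescence polarization of Cy5-labelled ZRE DNA probe bound by purified Zta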
T8 sequence (P03206 whole entry): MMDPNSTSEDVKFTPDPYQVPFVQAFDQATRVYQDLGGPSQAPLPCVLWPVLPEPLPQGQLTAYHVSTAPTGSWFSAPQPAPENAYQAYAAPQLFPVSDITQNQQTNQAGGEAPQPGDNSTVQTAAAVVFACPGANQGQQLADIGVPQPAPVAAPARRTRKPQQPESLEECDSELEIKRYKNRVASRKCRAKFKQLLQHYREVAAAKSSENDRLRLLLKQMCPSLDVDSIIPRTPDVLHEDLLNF

X-box-binding protein 1 = X-box-binding protein 1 (Homo sapiens, UniProt P17861); format: functional, Cricetulus griseus;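 further: confirmatory dose-response counter-screen serving a CHOP assay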
X-box-binding protein 1, sequence (P17861 whole entry): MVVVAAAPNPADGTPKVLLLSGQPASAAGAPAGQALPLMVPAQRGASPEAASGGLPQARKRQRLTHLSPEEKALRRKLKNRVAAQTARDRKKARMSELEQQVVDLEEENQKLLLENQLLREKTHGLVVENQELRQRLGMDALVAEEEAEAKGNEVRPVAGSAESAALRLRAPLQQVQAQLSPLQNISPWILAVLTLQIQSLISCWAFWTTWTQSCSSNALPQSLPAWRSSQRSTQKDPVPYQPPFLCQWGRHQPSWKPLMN

In the case of `CN(C)c1ccc(NC(=O)Cn2cc3c(n2)CCCC3)cc1`, the IC50 (Bcl-2-like protein 10) is reported as 21.8 µM (active), the IC50 (Estrogen receptor beta) is reported as 0.326 µM (not active) and the IC50 (Protein Tat) is reported as > 100 µM (inconclusive). For the same compound, the CC50 [1] was 22.2 µM (active) and the IC50 [2] was 22.1 µM (active).

In the case of `CC(C)(C)c1ccc(-n2ncc3c2CCCC3NC(=O)C2(C(N)=O)CC2)cc1` (centres undefined), the IC50 [3] is reported as > 80 µM (inactive), the AC50 (INS1) is reported as 4.11 µM (active) and the AC50 [4] is reported as 0.589 µM (active). For the same compound, the AC50 [5] was 0.807 µM (active), the AC50 [6] was 13.4 µM (active) and the IC50 (Galanin receptor type 3) was 0.408 µM (active). For the same compound, the EC50 (cells [7]) was > 29.9 µM (inactive).

In the case of `COc1cc(C2=NOC(C(=O)NCc3cccs3)C2)cc(OC)c1OC` (centres undefined), the EC50 [8] is reported as > 49.7 µM (not active) and the EC50 (Wee1-like protein kinase) is reported as > 49.7 µM (not active).

With `Cc1ccc(C(=O)Nc2cccc(C(F)(F)F)c2)cc1Nc1[nH]cnc2ncnc1-2` the EC50 [9] was < 0.1 µM (active), the EC50 [10] was 1.22 µM (active) and the EC50 (cells [11]) was 4.59 µM (active). For the same compound, the EC50 [12] was 11.8 µM (active), the EC50 [13] was < 0.1 µM (active) and the CC50 [14] was 34.8 µM (active). For the same compound, the EC50 [15] was > 12 µM (not active).

In the case of `O=C1NC(=O)C(=Cc2c[nH]c3ccc(OCc4ccccc4)cc23)C(=O)N1`, the IC50 (SUMO-activating enzyme [16]) is reported as 20.9 µM (active), the IC50 (SUMO-activating enzyme [17]) is reported as 11 µM (active) and the EC50 [18] is reported as > 99 µM (inactive). The EC50 [19] was > 99 µM (inactive).

In the case of `Cn1c(=O)n(C)c2cc(/C=C3/NC(=O)N(Cc4ccccc4)C3=O)ccc21`, the IC50 [20] is reported as 11.2 µM (not active), the IC50 [21] is reported as > 111 µM (not active) and the IC50 [3] is reported as > 80 µM (inactive).

In the case of `CCOC(=O)c1c(C)[nH]c(C(=O)COC(=O)c2[nH]c(C)c(C(C)=O)c2C)c1C`, the “Absolute IC50 (XBP1)” value (X-box-binding protein 1) is reported as 10 µM.
